Reference: PMC10779787, “An Efficient Synthesis of 1-(1,3-Dioxoisoindolin-2-yl)-3-aryl Urea Analogs as Anticancer and Antioxidant Agents: An Insight into Experimental and In Silico Studies” (Molecules, 2023)

Biological target: EGFR (Homo sapiens, UniProt P00533)
Experiment: EGFR kinase assay kit (BPS Bioscience), Kinase-Glo MAX luminescence, poly(Glu:Tyr […]) substrate
Format: biochemical

EGFR, sequence (P00533 25-1210): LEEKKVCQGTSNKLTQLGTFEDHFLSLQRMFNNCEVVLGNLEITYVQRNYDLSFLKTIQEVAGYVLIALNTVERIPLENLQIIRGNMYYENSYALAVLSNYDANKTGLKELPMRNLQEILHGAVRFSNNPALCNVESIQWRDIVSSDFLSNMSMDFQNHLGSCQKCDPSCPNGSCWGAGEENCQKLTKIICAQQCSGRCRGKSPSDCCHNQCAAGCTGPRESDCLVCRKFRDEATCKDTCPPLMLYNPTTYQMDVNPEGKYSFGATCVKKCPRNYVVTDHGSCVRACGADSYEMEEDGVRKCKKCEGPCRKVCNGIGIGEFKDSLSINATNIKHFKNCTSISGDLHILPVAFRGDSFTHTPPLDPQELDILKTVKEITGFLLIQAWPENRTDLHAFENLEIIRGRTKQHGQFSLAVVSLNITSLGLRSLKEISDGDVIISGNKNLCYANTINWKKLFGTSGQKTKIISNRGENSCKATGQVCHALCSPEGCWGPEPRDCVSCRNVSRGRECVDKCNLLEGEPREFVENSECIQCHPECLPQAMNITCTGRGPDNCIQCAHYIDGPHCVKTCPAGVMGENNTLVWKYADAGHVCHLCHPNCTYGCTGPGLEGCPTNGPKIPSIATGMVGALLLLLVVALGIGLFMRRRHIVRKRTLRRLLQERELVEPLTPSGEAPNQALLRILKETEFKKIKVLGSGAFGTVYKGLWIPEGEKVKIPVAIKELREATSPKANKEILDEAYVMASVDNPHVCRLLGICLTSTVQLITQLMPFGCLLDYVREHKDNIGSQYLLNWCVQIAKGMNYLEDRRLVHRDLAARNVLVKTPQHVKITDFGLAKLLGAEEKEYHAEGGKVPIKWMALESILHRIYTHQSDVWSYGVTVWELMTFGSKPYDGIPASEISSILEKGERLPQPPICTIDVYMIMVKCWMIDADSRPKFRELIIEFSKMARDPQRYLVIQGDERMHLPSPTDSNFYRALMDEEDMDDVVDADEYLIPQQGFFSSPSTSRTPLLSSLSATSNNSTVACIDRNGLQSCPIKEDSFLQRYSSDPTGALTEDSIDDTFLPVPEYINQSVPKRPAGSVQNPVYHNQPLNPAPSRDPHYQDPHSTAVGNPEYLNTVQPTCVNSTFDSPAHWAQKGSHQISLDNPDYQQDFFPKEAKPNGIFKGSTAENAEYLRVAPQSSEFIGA

O=C(Nc1ccc(Br)cc1)NN1C(=O)c2ccccc2C1=O [7c, 1-(4-Bromophenyl)-3-(1,3-dioxoisoindolin-2-yl)urea]
IC50: 42.9 ± 0.8 nM
